39 molecules from BindingDB's records for doi:10.1021/jm034206x (Boehringer Ingelheim (Canada), 2003) can be followed below.

For experiment [1], the target named is Replication protein E1 (Human papillomavirus type 6). Briefly: Ability to inhibit in vitro ATPase activity of human papillomavirus (HPV6) E1 helicase.
The target in the next experiment is T1, Replication protein E1 (Human papillomavirus 11, UniProt P04014).
T1 sequence (P04014 whole entry): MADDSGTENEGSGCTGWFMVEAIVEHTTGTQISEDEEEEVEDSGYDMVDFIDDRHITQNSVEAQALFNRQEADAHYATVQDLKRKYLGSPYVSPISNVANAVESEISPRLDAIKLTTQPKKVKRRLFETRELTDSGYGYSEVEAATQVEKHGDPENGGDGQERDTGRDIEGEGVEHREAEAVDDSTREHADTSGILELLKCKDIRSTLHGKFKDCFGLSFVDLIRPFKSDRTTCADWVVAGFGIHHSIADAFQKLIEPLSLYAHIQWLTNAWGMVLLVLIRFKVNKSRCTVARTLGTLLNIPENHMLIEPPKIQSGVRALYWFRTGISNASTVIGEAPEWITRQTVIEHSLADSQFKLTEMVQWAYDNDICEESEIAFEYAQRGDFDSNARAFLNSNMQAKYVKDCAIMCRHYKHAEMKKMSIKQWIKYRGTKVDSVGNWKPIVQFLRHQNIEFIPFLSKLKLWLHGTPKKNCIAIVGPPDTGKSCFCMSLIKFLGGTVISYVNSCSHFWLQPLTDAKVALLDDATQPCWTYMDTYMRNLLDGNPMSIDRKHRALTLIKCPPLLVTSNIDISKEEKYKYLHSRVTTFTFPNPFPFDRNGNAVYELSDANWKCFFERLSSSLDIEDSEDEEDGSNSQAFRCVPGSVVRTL
Briefly: ChEBML_84985. An excerpt: Ability to inhibit in vitro ATPase activity of human papillomavirus (HPV6) E1 helicase

pIC50: −log10 of the molar value.

Molecule `CC(C)(C(=O)O)S(=O)(=O)c1ccc(-c2ccccc2)cc1` [2-(Biphenyl-4-sulfonyl)-2-methyl-propionic acid] gave a pIC50 in experiment [1] of under 4.10. Same read-out and setting: the value for `NC(=O)CS(=O)(=O)c1ccc(-c2ccccc2)cc1` [2-(Biphenyl-4-sulfonyl)-acetamide] was under 4.10; that for `CC(C(=O)O)S(=O)(=O)c1ccc(-c2ccccc2)cc1` (centres undefined) [2-(Biphenyl-4-sulfonyl)-propionic acid] was 4.77.

`CS(=O)(=O)c1ccc(-c2cccc(C(=O)NCc3cccc4ccccc34)c2)cc1` [4'-Methanesulfonyl-biphenyl-3-carboxylic acid (naphthalen-1-ylmethyl)-amide]: the pIC50 in experiment [1] was under 4.10. `CS(=O)(=O)c1ccc(-c2ccccc2)cc1` [4-Methanesulfonyl-biphenyl] had a pIC50 in experiment [1] of under 4.10. In experiment [1], `O=C(NCc1cccc2ccccc12)c1cccc(-c2ccc(C(=O)C(F)(F)P(=O)(O)O)cc2)c1` [(1,1-Difluoro-2-{3'-[(naphthalen-1-ylmethyl)-carbamoyl]-biphenyl-4-yl}-2-oxo-ethyl)-phosphonic acid] showed a pIC50 of 6.13. The molecule `COc1cccc(-c2ccc(S(=O)(=O)CC(=O)O)cc2)c1` [(3'-Methoxy-biphenyl-4-sulfonyl)-acetic acid] gave a pIC50 in experiment [1] of 5.40. This pIC50 lies 0.73 log units lower than the previous one. `O=C(O)CS(=O)(=O)c1ccc(-c2cccc(C(=O)Nc3ccccc3)c2)cc1` [(3'-Phenylcarbamoyl-biphenyl-4-sulfonyl)-acetic acid] showed a pIC50 in experiment [1] of 6.38. In turn, `O=C(O)CS(=O)(=O)c1cccc(COc2ccccc2)c1` [(3-Phenoxymethyl-benzenesulfonyl)-acetic acid] had a negative-log IC50 (pIC50) in experiment [1] of under 4.10. On the same count and under the same terms, the value for `O=C(O)CS(=O)(=O)c1ccc(-c2ccc(C(=O)NCc3ccccc3)cc2)cc1` [(4'-Benzylcarbamoyl-biphenyl-4-sulfonyl)-acetic acid] was 6.29. `O=C(O)CS(=O)(=O)c1ccc(-c2ccc(CC(=O)NCc3ccccc3)cc2)cc1` [(4'-Benzylcarbamoylmethyl-biphenyl-4-sulfonyl)-acetic acid]: the pIC50 in experiment [1] was 6.47. On the same count and under the same terms, the figure for `O=C(O)CS(=O)(=O)c1ccc(-c2ccc(C(=O)N(Cc3ccccc3)Cc3ccccc3)cc2)cc1` [(4'-Dibenzylcarbamoyl-biphenyl-4-sulfonyl)-acetic acid] is 5.96; for `COc1ccc(-c2ccc(S(=O)(=O)CC(=O)O)cc2)cc1` [(4'-Methoxy-biphenyl-4-sulfonyl)-acetic acid] it is 5.89. Regarding `O=C(O)CS(=O)(=O)c1ccc(-c2ccc(C(=O)Nc3ccccc3)cc2)cc1` [(4'-Phenylcarbamoyl-biphenyl-4-sulfonyl)-acetic acid], the pIC50 in experiment [1] is 5.89. The same measure, in the same setting: the value for `O=C(O)CS(=O)(=O)c1ccc(-c2ccc(CC(=O)Nc3ccccc3)cc2)cc1` [(4'-Phenylcarbamoylmethyl-biphenyl-4-sulfonyl)-acetic acid] was 6.80; that for `O=C(O)CS(=O)(=O)c1ccc(-c2ccc3c(c2)OCO3)cc1` [(4-Benzo[1,3]dioxol-5-yl-benzenesulfonyl)-acetic acid] was 5.89. The molecule `O=C(O)CS(=O)(=O)c1ccc(-c2cccc3ccccc23)cc1` [(4-Naphthalen-1-yl-benzenesulfonyl)-acetic acid] gave a pIC50 in experiment [1] of 5.27.

In experiment [1], `O=C(O)CS(=O)(=O)c1ccc(NCCc2ccccc2)cc1` [(4-Phenethylamino-benzenesulfonyl)-acetic acid] gave a pIC50 of 4.17. In the case of `O=C(O)CS(=O)(=O)c1ccc(Sc2ccccc2)cc1` [(4-Phenylsulfanyl-benzenesulfonyl)-acetic acid], the pIC50 in experiment [1] is under 4.10. With `O=C(O)CS(=O)(=O)c1ccc(-c2nccs2)cc1` [(4-Thiazol-2-yl-benzenesulfonyl)-acetic acid], the pIC50 in experiment [1] is 4.70. Take `O=C(O)CS(=O)(=O)c1cccc(-c2ccccc2)c1` [(Biphenyl-3-sulfonyl)-acetic acid]: in experiment [1], the pIC50 was under 4.10.

Molecule `O=C(O)CSc1ccc(-c2ccccc2)cc1` [(Biphenyl-4-sulfanyl)-acetic acid] gave a pIC50 in experiment [1] of under 4.10. The same measure, in the same setting: the value for `O=C(O)C(F)S(=O)(=O)c1ccc(-c2ccccc2)cc1` (centres undefined) [(Biphenyl-4-sulfonyl)-fluoro-acetic acid] was 5.19. Molecule `O=S(=O)(O)CS(=O)(=O)c1ccc(-c2ccccc2)cc1` [(Biphenyl-4-sulfonyl)-methanesulfonic acid] gave a pIC50 in experiment [1] of 4.49. Molecule `O=C(O)CS(=O)(=O)c1ccc2ccccc2c1` [(Naphthalene-2-sulfonyl)-acetic acid] gave a pIC50 in experiment [1] of 4.40.

In turn, `C[C@H](NC(=O)c1cccc(-c2ccc(S(=O)(=O)CC(=O)O)cc2)c1)c1ccccc1` [[3'-(1-(S)-phenyl-ethylcarbamoyl)-biphenyl-4-sulfonyl]-acetic acid] had a pIC50 in experiment [1] of 5.77. `Cc1cccc(CNC(=O)c2cccc(-c3ccc(S(=O)(=O)CC(=O)O)cc3)c2)c1C` [[3'-(2,3-dimethyl-benzylcarbamoyl)-biphenyl-4-sulfonyl]-acetic acid]: in experiment [1], the pIC50 was 8.04. Compared with the last molecule, the pIC50 is 2.27 log units higher.

The molecule `Cc1ccccc1CNC(=O)c1cccc(-c2ccc(S(=O)(=O)CC(=O)O)cc2)c1` [[3'-(2-methyl-benzylcarbamoyl)-biphenyl-4-sulfonyl]-acetic acid] showed a pIC50 in experiment [1] of 7.49.

In experiment [1], `Cc1cccc(CNC(=O)c2cccc(-c3ccc(S(=O)(=O)CC(=O)O)cc3)c2)c1` [[3'-(3-methyl-benzylcarbamoyl)-biphenyl-4-sulfonyl]-acetic acid] had a pIC50 of 7.57.

In the case of `C[C@@H](NC(=O)c1cccc(-c2ccc(S(=O)(=O)CC(=O)O)cc2)c1)c1ccccc1` [[3'-((R)-1-Phenyl-ethylcarbamoyl)-biphenyl-4-sulfonyl]-acetic acid], the pIC50 in experiment [1] is 7.37. Compared with the last molecule, the pIC50 is 0.20 log units lower. With `O=C(O)CS(=O)(=O)c1ccc(-c2cccc(CC(=O)N[C@H]3CCc4ccccc43)c2)cc1` [[3'-((S)-Indan-1-ylcarbamoylmethyl)-biphenyl-4-sulfonyl]-acetic acid], in experiment [1], the negative-log IC50 (pIC50) is 7.70. For `O=C(O)CS(=O)(=O)c1ccc(-c2cccc(CC(=O)NCc3ccccc3)c2)cc1` [[3'-(Benzylcarbamoyl-methyl)-biphenyl-4-sulfonyl]-acetic acid], the pIC50 in experiment [1] was 6.52. With `O=C(O)CS(=O)(=O)c1ccc(-c2cccc(C(=O)N3CCOCC3)c2)cc1` [[3'-(Morpholine-4-carbonyl)-biphenyl-4-sulfonyl]-acetic acid], in experiment [1], the pIC50 was 4.66. Against the preceding molecule, the pIC50 is 1.86 log units lower. `CN(C(=O)c1ccc(-c2ccc(S(=O)(=O)CC(=O)O)cc2)cc1)c1ccccc1` [[4'-(Methyl-phenyl-carbamoyl)-biphenyl-4-sulfonyl]-acetic acid] had a pIC50 in experiment [1] of 5.32. Molecule `O=C(O)CS(=O)(=O)c1ccc(-c2ccc(C(=O)N3CCCCC3)cc2)cc1` [[4'-(Piperidine-1-carbonyl)-biphenyl-4-sulfonyl]-acetic acid] had a pIC50 in experiment [1] of 5.48. In turn, `Cc1nc(-c2ccc(S(=O)(=O)CC(=O)O)cc2)cs1` [[4-(2-Methyl-thiazol-4-yl)-benzenesulfonyl]-acetic acid] had a pIC50 in experiment [1] of 4.52. For the molecule `O=C(O)CS(=O)(=O)c1ccc(-c2cccc(C(=O)NCc3cccc4ccccc34)c2)cc1` [{3'-[(Naphthalen-1-ylmethyl)-carbamoyl]-biphenyl-4-sulfonyl}-acetic acid], the pIC50 against Replication protein E1 is 8.37. `O=C(O)CS(=O)(=O)c1ccc(-c2cccc(CC(=O)Nc3ccccc3)c2)cc1` [{3'-[(phenylcarbamoyl)-methyl]-biphenyl-4-sulfonyl}-acetic acid] had a pIC50 in experiment [1] of 6.96. The molecule `CC(=O)NCCNC(=O)Cc1ccc(-c2ccc(S(=O)(=O)CC(=O)O)cc2)cc1` [{4'-[(2-Acetylamino-ethylcarbamoyl)-methyl]-biphenyl-4-sulfonyl}-acetic acid] gave a pIC50 in experiment [1] of 5.72.
